Results published in patent US11400082B2, “Methods of treating elevated plasma cholesterol” (Montréal Heart Institute, priority 2017, dated 2022).
Where “and” joins values, the source holds several entries; their conditions need not be identical. Equal values may be shown once. Read-outs that look alike come from different tables or passages of the source.

Experiments:
[1] = Cell viability assay (MTT); format: cell-based; settings: human; overnight incubation, viability relative to DMSO
Method: Following incubation, media was replaced and cells incubated for 4 h with 100 μL of phenol red-free DMEM containing 0.5 mg/mL of MTT (3-[4,5-dimethylthiazol-2-yl]-2,5-diphenyltetrazolium bromide; thiazolyl blue; catalog no. M5655, Sigma-Aldrich). Afterwards, media was removed and converted dye solubilized with 100 μL acidic isopropanol (0.06 N) and absorbance measured at a wavelength of 570 nm with background subtraction at 650 nm. Arbitrary units of cell viability of a given example were determined relative to equal volume of DMSO (vehicle) for each concentration used.

LDLR protein [2] = assay: Western blot analysis, relative quantification of LDLR protein levels; format: cell-based, human; settings: overnight, hepatoma cells (HepG2, FIG. 13), normalized to actin, vehicle (DMSO) = 1
Method: (§1) For sterol-regulated conditions, HepG2 cells were incubated in 5% LPDS, 50 μM mevastatin, and 50 μM mevalonolactone in the absence (-sterols) or presence of 1 μg/ml 25-hydroxycholesterol and 10 μg/ml cholesterol (+sterols). For inhibitor treatments HepG2 cells were treated with DMSO or 10 μM compounds 2 in combination with U0126 (25 μM, catalog no. 9903, Cell Signaling Technology), Cycloheximide (CHX; 20 μg/ml, catalog no. C7698, Sigma-Aldrich), PD153035 (20 μM, catalog no. 14879, Cayman Chemical), bisindolylmaleimide I (BIM; 10 μM, catalog no. 13298, Cayman Chemical), H-89 (10 μM, catalog no. 10010556, Cayman Chemical), Dorsomorphin (5 μM, catalog no. 11967, Cayman Chemical) or 5-Azacytidine (10 μM, catalog no. A2385, Sigma-Aldrich).
Treated cells from Example 28 were washed three times in phosphate-buffered saline (PBS) and lysed in radioimmune precipitation assay buffer (50 mM Tris/HCl, pH 8.0, 1% (v/v) Nonidet P-40, 0.5% sodium deoxycholate, 150 mM NaCl, and 0.1% (v/v) SDS) supplemented with a complete protease inhibitor mixture (catalog no. 11 697 498 001, Roche Applied Science). Proteins were separated by 8% SDS polyacrylamide gel electrophoresis, blotted on nitrocellulose membranes (Bio-Rad), and blocked for 1 h in Tris-buffered saline-Tween 20 (TBS-T; 50 mM Tris-HCl, pH 7.5, 150 mM NaCl, 0.1% Tween 20) containing 5% nonfat dry milk. Membranes were then incubated overnight in TBS-T supplemented with 1% nonfat milk and the indicated antibodies; goat anti-human LDLR (1:1000; catalog no. AF2148, R&D Systems), rabbit anti-actin (1:5000; catalog no. A2066, Sigma-Aldrich). Appropriate HRP-conjugated secondary antibodies (1:10,000; GE healthcare) were used for detection using the Western Lightning Ultra chemiluminescence kit (catalog no. NEI112001EA, PerkinElmer Life Sciences) and BioFlex EC Films (catalog no. CLEC810, InterScience). Unsaturated films were numerized using the high resolution CanoScan 9000F scanner and corresponding bands were quantified using the ImageJ software (NIH). Relative quantification of LDLR protein levels were normalized to that of actin and compared to vehicle (DMSO) herein determined as 1.

LDLR protein [3] = format: cell-based, human
Method: as §1
Treated cells from Example 28 were washed three times in phosphate-buffered saline (PBS) and lysed in radioimmune precipitation assay buffer (50 mM Tris/HCl, pH 8.0, 1% (v/v) Nonidet P-40, 0.5% sodium deoxycholate, 150 mM NaCl, and 0.1% (v/v) SDS) supplemented with a complete protease inhibitor mixture (catalog no. 11 697 498 001, Roche Applied Science). […] Unsaturated films were numerized using the high resolution CanoScan 9000F scanner and corresponding bands were quantified using the ImageJ software (NIH). Relative quantification of LDLR protein levels were normalized to that of actin and compared to vehicle (DMSO) herein determined as 1.

Row | Structure (SMILES) | LDLR Fold Change 10 nM (LDLR protein [2]) | LDLR Fold Change 10 μM (LDLR protein [2]) | other results
1 | O=C(NO)c1ncc(CCc2ccc(F)cc2)c(CO)c1O [Compound 6, 5-[2-(4-fluoro-phenyl)-ethyl]-3-hydroxy-4-hydroxymethyl-pyridine-2-carboxylic acid hydroxamide] | 1.5 | 2.3 | CC50 [1]: 39 µM
2 | COC(=O)c1ncc(COCc2ccc(OC)cc2)c2c1OC(C)(C)OC2 [Compound 10, methyl 5-((4-methoxybenzyloxy)methyl)-2,2-dimethyl-4H-[1,3] dioxino[4,5-c]pyridine-8-carboxylate] | 1.7 | 1.2 | 
3 | C[C@@H]1C[C@@H]([C@H](O)CC2CC(=O)NC(=O)C2)C(=O)[C@@H](C)C1 [CHX, Cycloheximide] |  |  | effect of combined inhibitor on increase of LDLR by Compound 2 (LDLR protein [3]; HepG2 cells, 10 μM Compound 2 in combination with inhibitor (U0126 25 μM, CHX 20 μg/ml), FIG. 19): block increase of LDLR by Compound 2
4 | COc1ccc(COCc2cnc(C(=O)O)c(O)c2C)cc1 [Compound 7, 5-(4-methoxy-benzyloxymethyl)-3-hydroxy-4-methyl-pyridine-2-carboxylic acid] | 1.7 | 1.9 and 2-3 | 
5 | COC(=O)c1ncc(COCc2ccc(OC)cc2)c(C)c1O [Compound 8, 5-(4-methoxy-benzyloxymethyl)-3-hydroxy-4-methyl-pyridine-2-carboxylic acid methyl ester] | 1.7 | 1.7 | 
6 | Cc1ncc(COc2ccc(F)cc2)c2c1OC(C)(C)OC2 [Compound 26, 5-((4-fluorophenoxy)methyl)-2,2-dimethyl-4H-[1,3]dioxino[4,5-c]picoline] | 1 | 1.5 | 
7 | O=C(NO)c1ncc(CNc2ccc(F)cc2)c(CO)c1O [Compound 1, 5-[(4-fluoro-phenylamino)-methyl]-3-hydroxy-4-hydroxymethyl-pyridine-2-carboxylic acid hydroxyamide] |  | 6.9 | CC50 [1]: 120 µM
8 | COC(=O)c1ncc(C(=O)NCc2ccc(F)c(Cl)c2)c2c1OC(C)(C)OC2 [Compound 25, 2,2-dimethyl-4H-[1,3]dioxino[4,5-c]pyridine-5,8-dicarboxylic acid 5-(3-chloro-4-fluoro-benzylamide)-8-(methyl ester)] |  | 1.9 | 
9 | N#CC(=C(/N)Sc1ccccc1N)/C(C#N)=C(\N)Sc1ccccc1N [Compound U0126, U0126] |  |  | effect of combined inhibitor on increase of LDLR by Compound 2 (LDLR protein [3]): block increase of LDLR by Compound 2
10 | COc1c(C(=O)NO)ncc(C(=O)NCc2ccc(F)cc2)c1CO [Compound 19, 4-hydroxymethyl-3-methoxy-pyridine-2,5-dicarboxylic acid 5-(4-fluoro-benzylamide) 2-hydroxyamide] |  |  | CC50 [1]: 6.6 µM
11 | COc1ccc(COCc2cnc(C)c3c2COC(C)(C)O3)cc1 [Compound 9, 5-((4-methoxybenzyloxy)methyl)-2,2,8-trimethyl-4H-[1,3]dioxino[4,5-c]pyridine] |  | 1.4 | 
12 | O=C(NO)c1ncc(COc2ccc(F)c(Cl)c2)c(CO)c1O [Compound 3, 5-(3-chloro-4-fluoro-phenoxymethyl)-3-hydroxy-4-hydroxymethyl-pyridine-2-carboxylic acid hydroxyamide] |  | 5.6 | CC50 [1]: 11 µM
13 | CC1(C)OCc2c(CNCc3ccc(F)c(Cl)c3)cnc(C(=O)NO)c2O1.Cl [Compound 5, 5-{(1-3-chloro-4-fluoro-phenyl)aminomethyl} 2,2-dimethyl-4H-[1,3]dioxino[4,5-c]pyridine-8-carboxylic acid hydroxamide] |  | 2.4 | 
14 | Cc1ncc(COc2ccc(F)cc2)c(CO)c1O [Compound 27, 5-((4-fluorophenoxy)methyl)-3-hydroxy-4-(hydroxymethyl)picoline] | 0.6 | 1.2 | 
15 | O=C(NCc1ccc(F)c(Cl)c1)c1cnc(C(=O)NO)c(O)c1CO [Compound 4, N^5-(3-chloro-4-fluorobenzyl)-N^2,3-dihydroxy-4-(hydroxymethyl)pyridine-2,5-dicarboxamide] |  | 2.7 | 
